Experimental data: US20150031655A1, “COMBINATION OF LIVER X RECEPTOR MODULATOR AND ESTROGEN RECEPTOR MODULATOR FOR THE TREATMENT OF AGE-RELATED DISEASES” (UNIVERSITY OF NORTH DAKOTA, priority 2011, published 2015)

Assays:
[1] = system: human neuroblastoma cells; details: cited from earlier work
[2] = system: α-synuclein; test: Western blot of α-synuclein protein levels in SH-SY5Y cells; assay type: cell-based, human; details: for basal α-synuclein expression levels: treatment alone vs control
Experimental: (§1) Human neuroblastoma SH-SY5Y cells were grown in DMEM/F12 medium containing 10% fetal bovine serum (FBS) and 1% antibiotic/antimycotic mix. Cells were maintained at 37° C. in a saturated humidity atmosphere containing 95% air and 5% CO2.
(§2) Treated SH-SY5Y cells were washed with PBS and trypsinized to collect the cells and centrifuged at 5000 g. The pellet was washed again with PBS and homogenized in NE-PER tissue protein extraction reagent (Thermo Scientific, Rockford, Ill.) supplemented with protease and phosphatase inhibitors. Protein concentrations from the cytosolic and nuclear homogenates were determined with BCA protein assay.
(§3) Proteins (10 μg) were separated on SDS-PAGE gels, transferred to a polyvinylidene difluoride membrane (BioRad, Hercules, Calif.), and incubated with the following monoclonal antibodies: anti-TH mouse antibody (1:1000; Sigma Aldrich, Saint Louis, Mo.), anti-α-synuclein mouse antibody (1:500; Chemicon, Temecula, Calif.), anti-ERα rabbit antibody (1:500; Abcam, Cambridge, Mass.), anti-ERβ rabbit antibody (1:200; Upstate, Lake Placid, N.Y.), anti-LXRα rabbit antibody (1:500; Abcam, Cambridge, Mass.), anti-LXRβ mouse antibody (1:500; Abcam, Cambridge, Mass.).
(§4) β-actin and Lamin A were used as a gel loading control for cytosolic homogenates and nuclear homogenates respectively. The blots were developed with enhanced chemiluminescence (Immmun-star HRP chemiluminescent kit, Bio-Rad, Hercules, Calif.). Bands were visualized on a polyvinylidene difluoride membrane and analyzed by LabWorks 4.5 software on a UVP Bioimaging System (Upland, Calif.). Quantification of results was performed by densitometry and the results analyzed as total integrated densitometric values (arbitrary units).

[3] = system: experimental intracerebral hemorrhage; details: 10 μmol.Kg^−1.day^−1 i.p.; cited from earlier work
[4] = in vivo; cited from earlier work
[5] = system: TNF-α; test: TNF-α levels in ARPE-19 cells; assay type: cell-based; details: ARPE-19, 24 h, co-treatment with 27-OHC, all at 10 μM
[6] = target: T1, ERβ (Homo sapiens, UniProt Q92731); test: Western blot of ERβ levels in the nucleus (nuclear translocation), SH-SY5Y cells; assay type: cell-based; details: 24 h
T1 construct: endogenous in cells; host or cells: SH-SY5Y human neuroblastoma cells
Experimental: as §1, §2, §3, §4

[7] = system: ERα/β; test: EMSA, binding of nuclear ER to probe for the ERE half site in the TH promoter; assay type: cell-based, human
[8] = system: ARPE-19 cells; test: ROS levels in ARPE-19 cells; assay type: cell-based; details: ARPE-19, 24 h, co-treatment with 27-OHC, all at 10 μM
[9] = system: TH promoter; test: Dual-luciferase TH promoter assay; assay type: cell-based, human
Experimental: Constructs encoding ERE and TH promoter conjugated to the firefly luciferase gene were used in the study. Human neuroblastoma SH-SY5Y cells were plated in 96-well plates at a density of 2×10^4 cells/well. The cells were transfected when 80% confluent with 0.25 μg of either ERE-firefly Luciferase reporter construct, LXRE-firefly Luciferase reporter construct, or TH promotor-firefly Luciferase promoter construct. Respective non-inducible reporter constructs containing constitutively expressing Renilla luciferase were used as negative internal controls. Constitutively expressing GFP constructs were used as positive control to determine transfection efficiency. Cells were incubated for 24 hours with Opti-MEM serum free medium (Invitrogen, Carlsbad, Calif.) containing the reporter constructs dissolved in transfection reagent. After 24 hours the medium was changed and the cells were incubated in normal DMEM/F12 medium containing 10% FBS and cells were treated with the different treatment regimens. The cells were treated in triplicate and harvested 24 hours later and subjected to dual-luciferases assay. The dual-luciferase assay was performed using a “Dual-Luciferase Reporter Assay System” from Promega (Madison, Wis.). The luminescence recorded is expressed as Relative Luminescence Units (RLU) and normalized to per mg protein. Unit value was assigned to control and the magnitude of differences among the samples is expressed relative to the unit value of control cells.

[10] = system: TH mRNA; test: Real time RT-PCR of TH mRNA in SH-SY5Y cells; assay type: cell-based, human; details: 24 h
Experimental: as §1
Total RNA was isolated and extracted from treated cells using the 5 prime “PerfectPure RNA tissue kit” (5 Prime, Inc., Gaithersburg, Md.). RNA estimation was performed using “Quant-iT RNA Assay Kit” using a Qubit fluorometer according to the manufacturer's protocol (Invitrogen, Carlsbad, Calif.). cDNA was synthesized by reverse transcribing 1 μg of extracted RNA using an “iScript cDNA synthesis kit” (BioRad, Hercules, Calif.). The oligomeric primers (Sigma, St Louis, Mo.) used to amplify the TH mRNA and α-synuclein mRNA are enumerated in Table 1. The cDNA amplification was performed using an iQ SYBR Green Supermix kit following the manufacturer's instructions (BioRad, Hercules, Calif.). The amplification was performed using an iCycler iQ Multicolor Real Time PCR Detection System (BioRad, Hercules, Calif.). The expression of specific TH and α-synuclein transcripts amplified were normalized to the expression of glyceraldehyde-3-phosphate dehydrogenase (GAPDH).

[11] = system: TH; test: Western blot of TH protein levels in SH-SY5Y neuroblastoma cells; assay type: cell-based, human; details: 24 h
Experimental: as §1, §2, §3, §4

T1 sequence (Q92731 whole entry): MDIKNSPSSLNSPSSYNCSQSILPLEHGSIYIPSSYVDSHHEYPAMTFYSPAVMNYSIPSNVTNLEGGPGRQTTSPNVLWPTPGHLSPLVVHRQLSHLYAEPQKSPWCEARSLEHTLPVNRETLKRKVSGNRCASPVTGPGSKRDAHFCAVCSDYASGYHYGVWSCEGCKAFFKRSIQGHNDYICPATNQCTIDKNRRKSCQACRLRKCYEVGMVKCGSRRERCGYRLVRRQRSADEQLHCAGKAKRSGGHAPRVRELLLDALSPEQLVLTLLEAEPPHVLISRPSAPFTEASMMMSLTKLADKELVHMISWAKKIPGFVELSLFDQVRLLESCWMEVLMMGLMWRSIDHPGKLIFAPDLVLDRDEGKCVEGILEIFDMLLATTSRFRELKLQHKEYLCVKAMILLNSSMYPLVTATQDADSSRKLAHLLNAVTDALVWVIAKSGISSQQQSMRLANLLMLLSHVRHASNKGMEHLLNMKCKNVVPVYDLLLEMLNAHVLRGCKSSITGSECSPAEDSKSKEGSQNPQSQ

SMILES: CC(C)C(O)CC[C@@H](C)[C@H]1CC[C@H]2[C@@H]3CC=C4C[C@@H](O)CC[C@]4(C)[C@H]3CC[C@]12C (some centres unmarked) [24-OHC, 24-hydroxycholesterol]
- 27-OHC-induced effects on TH [1]: reverse
- 27-OHC-induced effects on α-synuclein [1]: reverse

SMILES: C[C@]12CC[C@@H]3c4ccc(O)cc4C[C@@H](CCCCCCCCC[S+]([O-])CCCC(F)(F)C(F)(F)F)[C@H]3[C@@H]1CC[C@@H]2O (some centres unmarked) [ICI 182780, Fulvestrant]
- basal α-synuclein expression levels [2]: no effect

SMILES: CCC1=C(C)c2cc3[n-]c(cc4[n-]c(cc5nc(cc1n2)C(C)=C5CC)c(C)c4CCC(=O)O)c(CCC(=O)O)c3C.[Cl-].[Cl-].[Sn+4] [SnMP, Tin-mesoporphyrin IX]
- protection against experimental intracerebral hemorrhage [3]: protect
- blood brain barrier passage [4]: crosses

SMILES: C[C@]12CC[C@@H]3c4ccc(O)cc4CC[C@H]3[C@@H]1CC[C@@H]2O [estradiol, 17β-estradiol]
- 27-OHC-induced increase in TNF-α levels [5]: reduced
- effect of ECHS on 27-OHC-induced increase in α-synuclein expression ([2]; estradiol added to 27-OHC+ECHS): does not alter
- α-synuclein expression ([2]; in combination with ECHS): no effect
- basal α-synuclein expression levels [2]: no effect
- 27-OHC-induced attenuation in the nuclear translocation of ERβ ([6]; concomitant with 10 μM 27-OHC): completely reduced
- nuclear translocation / nuclear levels of ERβ ([6]; treatment alone vs control): increases
- binding of nuclear ER to the DNA probe corresponding to the ERE-half site on the TH promoter [7]: significantly increases
- inhibitory effects of 27-OHC on binding of ER to the exogenous DNA probe [7]: completely reverses
- 27-OHC-induced increase in ROS levels [8]: not
- increase in basal TH promoter activity ([9]; SH-SY5Y transfected with TH promoter-luciferase, 24 h): 2.5 fold
- 27-OHC-induced reduction of TH promoter activity ([9]; concomitant with 27-OHC): completely reversed
- 27-OHC-induced attenuation of TH mRNA ([10]; concomitant with 10 μM 27-OHC): completely reversed
- TH mRNA ([10]; treatment alone vs control): increase
- TH protein levels ([11]; concomitant with 10 μM 27-OHC, compared to control or 27-OHC): significant increase
- TH protein levels / TH expression ([11]; treatment alone vs control (10 μM 27-OHC, 1 nM estradiol, 10 μM GW3965, 10 μM ECHS)): profound increase
